Laboratory results: PubChem BioAssay AID2060912 (Molecular Pharmacology Branch, DTP, NCI, 2025)

Test system: HUVEC/MSC spheroids viability
Experiment: Human HUVEC/MSC cell line growth inhibition [KRAS2];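 on viability, T/C: percent of DMSO vehicle control luminescence so 100% = untreated viability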
Conditions: for IC50: curve of first compound; for viability, T/C: stronger effect = lower value
Text: Multicellular complex tumor spheroid response to RAS pathway inhibitors in combination with a targeted agents in patient-derived cell lines with oncogenic KRAS variants from multiple cancer types
A high-throughput screen of multi-cell type tumor spheroids was designed to identify active combinations of targeted small molecules and KRAS pathway inhibitors. Complex spheroids include a stromal component modeled by human endothelial cells (HUVEC) and fibroblasts modeled by human mesenchymal stem cells (MSCs). The concentration ranges selected for each drug and investigational agent were based upon clinically achievable concentrations if the clinical Cmax of the agent was known. * [This particular assayID is a followup dataset requested by reviewers of the manuscript. It is a test of the HUVEC and MSC without the tumor cells, and was conducted using different drug plates and a different plate layout.]
Compounds. The drugs and investigational agents: BI-3406 (NSC825286), BAY-293 (NSC824723), batoprotafib (TNO155; NSC825523), sotorasib (AMG 510; NSC818433), MRTX1257 (NSC819558), elimusertib (BAY 1895344; NSC800525), molibresib (GSK525762; NSC774829), temuterkib (LY3214996; NSC803410), venetoclax (NSC766270), alisertib (NSC759677), olaparib (NSC753686), talazoparib (NSC767125), erdafitinib (NSC781556), ipatasertib (NSC767898), cabozantinib (NSC761068), nintedanib (NSC756659), abemaciclib (NSC768073), docetaxel (NSC628503), trametinib (NSC758246), and sapanisertib (NSC764658) were obtained from the National Cancer Institute (NCI) Developmental Therapeutics Program Chemical Repository. The FDA-approved anticancer drug set is available from the Developmental Therapeutics Program. […] The stock solutions were prepared in dimethyl sulfoxide (DMSO, Sigma-Aldrich, St. Louis, MO, cat. D2650) at 800-fold the tested concentration and stored at -70 degrees C prior to their use. All drugs and investigational agents were tested over a range starting from a high concentration at or near the clinical Cmax and decreasing in half-log increments. If the clinical Cmax for an agent had not been determined, the highest concentration tested was 10 microM.
Cell Culture. All cells were maintained in an incubator at 37 degrees C and 5% CO2 with 95% humidity. The PDC lines were cultured according to standard operating procedures established by the NCI PDMR (https://pdmr.cancer.gov/sops/default.htm). Briefly, all PDCs were thawed and cultured in Matrigel-coated flasks prepared with a working solution of 1X Ham's F-12 nutrient mix, without supplementation (Invitrogen, Waltham, MA, cat. 11765054), 100 U/mL penicillin-streptomycin (Invitrogen, cat. 15140122), and 2.5% Matrigel (Corning Inc., Corning, NY, cat. 354248) for the first three passages. All PDCs were cultured in complete DMEM/F-12 media containing advanced DMEM/F-12 (Invitrogen, cat. 12634028), 4.9% defined fetal bovine serum, heat inactivated (HyClone Laboratories Inc., Logan, UT, cat. SH30070.03HI), 389 ng/mL hydrocortisone (Sigma-Aldrich, cat. H4001), 9.7 ng/mL human EGF recombinant protein (Invitrogen, cat. PHG0313), 23.4 microg/mL adenine (Sigma-Aldrich, cat. A2786), 97.3 U/mL penicillin-streptomycin (Invitrogen, cat. 15140122), 1.9 mM L-glutamine (Invitrogen, cat. 25030081), and 9.7 microM Y-27632 dihydrochloride (Tocris Bioscience, Bristol, United Kingdom, cat. 1254). The PDCs were cultured in complete DMEM/F12 media without 9.7 microM Y-27632 dihydrochloride for at least two passages prior to the screen. The established cell line HOP-62 was cultured in RPMI 1640 medium, HEPES (Invitrogen, cat. 22400105) with 10% defined fetal bovine serum (HyClone Laboratories Inc., cat. SH30070.03) and 2 mM L-glutamine (Invitrogen, cat. 25030081). The pooled donor HUVEC were cultured in endothelial cell growth medium 2 (PromoCell, Heidelberg, Germany, cat. C-22011) and the hMSC were cultured in mesenchymal stem cell growth medium 2 (PromoCell, cat. C-28009). […]

[1] = second compound 0.0316 µM, first compound 0.0316 µM
[2] = second compound 0.0316 µM, first compound 0.1 µM
[3] = second compound 0.1 µM, first compound 0.0316 µM
[4] = second compound 0.1 µM, first compound 0.1 µM
[5] = second compound 0.316 µM, first compound 0.0316 µM
[6] = second compound 0.316 µM, first compound 0.1 µM
[7] = second compound 1 µM, first compound 0.0316 µM
[8] = second compound 1 µM, first compound 0.1 µM
[9] = second compound 3.16 µM, first compound 0.0316 µM
[10] = second compound 3.16 µM, first compound 0.1 µM
[11] = second compound 10 µM, first compound 0.0316 µM
[12] = second compound 10 µM, first compound 0.1 µM
[13] = second compound 0.0316 µM, first compound 0.316 µM
[14] = second compound 0.0316 µM, first compound 1 µM
[15] = second compound 0.0316 µM, first compound 3.16 µM
[16] = second compound 0.0316 µM, first compound 10 µM
[17] = second compound 0.1 µM, first compound 0.316 µM
[18] = second compound 0.1 µM, first compound 1 µM
[19] = second compound 0.1 µM, first compound 3.16 µM
[20] = second compound 0.1 µM, first compound 10 µM
[21] = second compound 0.316 µM, first compound 0.316 µM
[22] = second compound 0.316 µM, first compound 1 µM
[23] = second compound 0.316 µM, first compound 3.16 µM
[24] = second compound 0.316 µM, first compound 10 µM
[25] = second compound 1 µM, first compound 0.316 µM
[26] = second compound 1 µM, first compound 1 µM
[27] = second compound 1 µM, first compound 3.16 µM
[28] = second compound 1 µM, first compound 10 µM
[29] = second compound 3.16 µM, first compound 0.316 µM
[30] = second compound 3.16 µM, first compound 1 µM
[31] = second compound 3.16 µM, first compound 3.16 µM
[32] = second compound 3.16 µM, first compound 10 µM
[33] = second compound 10 µM, first compound 0.316 µM
[34] = second compound 10 µM, first compound 1 µM
[35] = second compound 10 µM, first compound 3.16 µM
[36] = second compound 10 µM, first compound 10 µM

CC(C)n1nc(-c2ccc3oc(N)nc3c2)c2c(N)ncnc21 + C=CC(=O)N1CCN(c2nc(=O)n(-c3c(C)ccnc3C(C)C)c3nc(-c4c(O)cccc4F)c(F)cc23)C(C)C1
IC50 (second compound 0.0316 µM): 0.00306 µM | IC50 (second compound 0.1 µM): 0.00963 µM | IC50 (second compound 0.316 µM): 0.1 µM | IC50 (second compound 1 µM): > 0.1 µM | IC50 (second compound 3.16 µM): > 0.1 µM | IC50 (second compound 10 µM): > 0.1 µM | viability, T/C (second compound 0.0316 µM, first compound 0.000316 µM): 88.3% | viability, T/C (second compound 0.0316 µM, first compound 0.001 µM): 76.4% | viability, T/C (second compound 0.0316 µM, first compound 0.00316 µM): 48.8% | viability, T/C (second compound 0.0316 µM, first compound 0.01 µM): 49.7% | viability, T/C [1]: 43.2% | viability, T/C [2]: 44.1% | viability, T/C (second compound 0.1 µM, first compound 0.000316 µM): 88.7% | viability, T/C (second compound 0.1 µM, first compound 0.001 µM): 59.8% | viability, T/C (second compound 0.1 µM, first compound 0.00316 µM): 63.4% | viability, T/C (second compound 0.1 µM, first compound 0.01 µM): 48.5% | viability, T/C [3]: 50.4% | viability, T/C [4]: 36.2% | viability, T/C (second compound 0.316 µM, first compound 0.000316 µM): 79.4% | viability, T/C (second compound 0.316 µM, first compound 0.001 µM): 86.6% | viability, T/C (second compound 0.316 µM, first compound 0.00316 µM): 53.5% | viability, T/C (second compound 0.316 µM, first compound 0.01 µM): 52.5% | viability, T/C [5]: 64.4% | viability, T/C [6]: 50.6% | viability, T/C (second compound 1 µM, first compound 0.000316 µM): 94% | viability, T/C (second compound 1 µM, first compound 0.001 µM): 73.1% | viability, T/C (second compound 1 µM, first compound 0.00316 µM): 65% | viability, T/C (second compound 1 µM, first compound 0.01 µM): 51.9% | viability, T/C [7]: 65% | viability, T/C [8]: 53.5% | viability, T/C (second compound 3.16 µM, first compound 0.000316 µM): 86.2% | viability, T/C (second compound 3.16 µM, first compound 0.001 µM): 74.9% | viability, T/C (second compound 3.16 µM, first compound 0.00316 µM): 66.6% | viability, T/C (second compound 3.16 µM, first compound 0.01 µM): 60.6% | viability, T/C [9]: 62.3% | viability, T/C [10]: 56.4% | viability, T/C (second compound 10 µM, first compound 0.000316 µM): 75% | viability, T/C (second compound 10 µM, first compound 0.001 µM): 67.4% | viability, T/C (second compound 10 µM, first compound 0.00316 µM): 72.9% | viability, T/C (second compound 10 µM, first compound 0.01 µM): 76.3% | viability, T/C [11]: 60.4% | viability, T/C [12]: 54.9%

CC1(C)CCC(CN2CCN(c3ccc(C(=O)NS(=O)(=O)c4ccc(NCC5CCOCC5)c([N+](=O)[O-])c4)c(Oc4cnc5[nH]ccc5c4)c3)CC2)=C(c2ccc(Cl)cc2)C1 + C=CC(=O)N1CCN(c2nc(=O)n(-c3c(C)ccnc3C(C)C)c3nc(-c4c(O)cccc4F)c(F)cc23)C(C)C1
IC50 (second compound 0.0316 µM): 4.57 µM | IC50 (second compound 0.1 µM): 4.7 µM | IC50 (second compound 0.316 µM): 5.75 µM | IC50 (second compound 1 µM): 5.28 µM | IC50 (second compound 3.16 µM): 5.97 µM | IC50 (second compound 10 µM): 5.96 µM | viability, T/C [1]: 105% | viability, T/C [2]: 92% | viability, T/C [13]: 95.4% | viability, T/C [14]: 85.4% | viability, T/C [15]: 75.2% | viability, T/C [16]: 2.28% | viability, T/C [3]: 114% | viability, T/C [4]: 101% | viability, T/C [17]: 114% | viability, T/C [18]: 85.7% | viability, T/C [19]: 80.1% | viability, T/C [20]: 3.17% | viability, T/C [5]: 104% | viability, T/C [6]: 100% | viability, T/C [21]: 97.2% | viability, T/C [22]: 115% | viability, T/C [23]: 97.3% | viability, T/C [24]: 6.37% | viability, T/C [7]: 144% | viability, T/C [8]: 125% | viability, T/C [25]: 125% | viability, T/C [26]: 115% | viability, T/C [27]: 86.5% | viability, T/C [28]: 6.99% | viability, T/C [9]: 97% | viability, T/C [10]: 123% | viability, T/C [29]: 104% | viability, T/C [30]: 113% | viability, T/C [31]: 101% | viability, T/C [32]: 8.7% | viability, T/C [11]: 115% | viability, T/C [12]: 143% | viability, T/C [33]: 162% | viability, T/C [34]: 119% | viability, T/C [35]: 93.6% | viability, T/C [36]: 15.4%

COc1cc2nccc(Oc3ccc(NC(=O)C4(C(=O)Nc5ccc(F)cc5)CC4)cc3)c2cc1OC + C=CC(=O)N1CCN(c2nc(=O)n(-c3c(C)ccnc3C(C)C)c3nc(-c4c(O)cccc4F)c(F)cc23)C(C)C1
IC50 (second compound 0.0316 µM): > 10 µM | IC50 (second compound 0.1 µM): 6.21 µM | IC50 (second compound 0.316 µM): 7.63 µM | IC50 (second compound 1 µM): 9.55 µM | IC50 (second compound 3.16 µM): > 10 µM | IC50 (second compound 10 µM): 8.55 µM | viability, T/C [1]: 66.7% | viability, T/C [2]: 102% | viability, T/C [13]: 63.2% | viability, T/C [14]: 72.4% | viability, T/C [15]: 77.2% | viability, T/C [16]: 51.5% | viability, T/C [3]: 61.5% | viability, T/C [4]: 71% | viability, T/C [17]: 89.2% | viability, T/C [18]: 92.6% | viability, T/C [19]: 91.7% | viability, T/C [20]: 27.8% | viability, T/C [5]: 79.2% | viability, T/C [6]: 108% | viability, T/C [21]: 96.6% | viability, T/C [22]: 80.6% | viability, T/C [23]: 83.3% | viability, T/C [24]: 40.2% | viability, T/C [7]: 87% | viability, T/C [8]: 89.5% | viability, T/C [25]: 111% | viability, T/C [26]: 92.4% | viability, T/C [27]: 92.6% | viability, T/C [28]: 48.2% | viability, T/C [9]: 103% | viability, T/C [10]: 124% | viability, T/C [29]: 129% | viability, T/C [30]: 88% | viability, T/C [31]: 84.2% | viability, T/C [32]: 56.9% | viability, T/C [11]: 112% | viability, T/C [12]: 102% | viability, T/C [33]: 109% | viability, T/C [34]: 97.9% | viability, T/C [35]: 123% | viability, T/C [36]: 40.7%
